Assays:
Erk = test: Activation of Erk (phospho-Erk Western blot) in HUVEC; assay type: cell-based, human; conditions: 100 μg/ml anti-CD44v6, 100 ng/ml peptide, 0.5 μg/ml CD44v6ECD; for VEGF-A165 induced activation of Erk: VEGF-A165 40 ng/ml
Method: (§1) Activation of RTKs and Erk Serum starved cells (24 h) were induced with the growth factor HGF (20 ng/ml) at 37° C. for 5 min or with VEGF-A165 or VEGF-A121 (40 ng/ml) at 37° C. for 8 min. Where indicated, the cells were treated with blocking reagents prior to induction at 37° C. for 10 min (100 μg/ml anti-CD44v6, 100 ng/ml v6 peptide or 100 ng/ml control peptide, 0.5 μg/ml CD44v6ECD). Cells were washed with icecold PBS. To detect activated Erk, cells were lysed in boiling SDS-sample buffer containing 100 mM dithiothreitol (DTT) and subjected to Western blot analysis using antibodies against phosphorylated Erk. The Erk loading control was performed on the same blot stripped (62.5 mM Tris pH 6.8, 2% SDS, 0.8% DTT) and probed with the Erk antibody. To detect activated VEGFR-2, cells were lysed in reducing sample buffer and the blots of SDS-PAGE gels were probed with an antibody against phosphorylated VEGFR-2. Alternatively, lysates (20 mM Tris pH 7.4, 1 mM EDTA, 1 mM EGTA, 1 mM DTT, 25 mM NaCl, 1.5% Triton X-100, 10 mM NaF, 1 mM PMSF, 1 mM Na-orthovanadate, 1 mM aprotinin and leupeptin) were prepared. After centrifugation, the cleared lysates (12,000 rpm for 15 min) were incubated with VEGFR-2 antibody (clone A-3, Santa Cruz, Heidelberg, Germany) or a mouse IgG control (Santa Cruz, Heidelberg, Germany) at 4° C. overnight followed by incubation with Protein A/G agarose beads (Merck, Darmstadt, Germany) for 2 h at 4° C. The beads were washed three times, boiled in sample buffer and subjected to Western blot analysis using phospho-specific VEGFR-2 antibody. To obtain the loading control, the blots were stripped and reprobed with the VEGFR-2 antibody. Blots were stained using the enhanced chemiluminescence system (ECL, Thermo Fischer Scientific Inc., Waltham, Mass.). Bands in Western blot analysis were quantified with the program Image J.

VEGFR-2 = molecular target: T1, VEGFR-2 (Homo sapiens, UniProt P35968); test: Activation of VEGFR-2 (phospho-VEGFR-2 Western blot) in HUVEC; assay type: cell-based; conditions: 100 μg/ml anti-CD44v6, 100 ng/ml peptide
T1 construct: endogenous in cells; host or cells: HUVEC (Provitro GmbH)
Method: as §1, with “After centrifugation, the cleared lysates (12,000 rpm for 15 min) were incubated with VEGFR-2 antibody (clone A-3, Santa Cruz, Heidelberg, Germany) or a mouse IgG control (Santa Cruz, Heidelberg, Germany) at 4° C. overnight followed by incubation with Protein A/G agarose beads (Merck, Darmstadt, Germany) for 2 h at 4° C. The beads were washed three times, boiled in sample buffer and subjected to Western blot analysis using phospho-specific VEGFR-2 antibody. To obtain the loading control, the blots were stripped and reprobed with the VEGFR-2 antibody. Blots were stained using the enhanced chemiluminescence system (ECL, Thermo Fischer Scientific Inc., Waltham, Mass.).” left out

MDA-MB231 tumors = test: Orthotopic MDA-MB231 mammary tumor model, tumor-induced angiogenesis; assay type: in vivo, SCID mice
Method: Injections of tumor cells MDA-MB231 cells (1×10^6 per animal) were harvested at subconfluency, washed with PBS and resuspended in 50 μl of PBS. The cells were implanted through a skin incision with an insulin syringe very slowly into the mammary fat pad of the fourth mammary complex of anesthetized female SCID mice (strain C.B-17/Ztm-scid). The incision was closed using an interrupted Vicryl suture for the skin (5/0, Ethicon, Norderstedt, Germany). The tumors were allowed to grow for one week, then the animals were divided in groups (6 to 7 animals per group) and treated with 20 μg of anti-mouse CD44v6 (clone 9A4), control IgG (NatuTec, Frankfurt, Germany), mouse v6 peptide or control peptide three times per week i.p. Tumor growth was monitored once per week using a caliper or via fpVCT imaging (see below). The animals were sacrificed 5 weeks after tumor cell implantation, the tumors were excised, measured, divided in halves and fixed in 4% formalin or zinc fixative (0.5 g/l calcium acetate, 5 g/l zinc acetate, 5 g/l zinc chloride in 0.1 M Tris pH 7.4) for 24 h for immunohistological analysis. L3.6pl human pancreatic cancer cells were injected orthotopically. Briefly, a small left abdominal flank incision was made and the spleen was exteriorized. […] The tumor volume was calculated as length×height×width divided by 2. […]

T1 sequence (P35968 20-1356): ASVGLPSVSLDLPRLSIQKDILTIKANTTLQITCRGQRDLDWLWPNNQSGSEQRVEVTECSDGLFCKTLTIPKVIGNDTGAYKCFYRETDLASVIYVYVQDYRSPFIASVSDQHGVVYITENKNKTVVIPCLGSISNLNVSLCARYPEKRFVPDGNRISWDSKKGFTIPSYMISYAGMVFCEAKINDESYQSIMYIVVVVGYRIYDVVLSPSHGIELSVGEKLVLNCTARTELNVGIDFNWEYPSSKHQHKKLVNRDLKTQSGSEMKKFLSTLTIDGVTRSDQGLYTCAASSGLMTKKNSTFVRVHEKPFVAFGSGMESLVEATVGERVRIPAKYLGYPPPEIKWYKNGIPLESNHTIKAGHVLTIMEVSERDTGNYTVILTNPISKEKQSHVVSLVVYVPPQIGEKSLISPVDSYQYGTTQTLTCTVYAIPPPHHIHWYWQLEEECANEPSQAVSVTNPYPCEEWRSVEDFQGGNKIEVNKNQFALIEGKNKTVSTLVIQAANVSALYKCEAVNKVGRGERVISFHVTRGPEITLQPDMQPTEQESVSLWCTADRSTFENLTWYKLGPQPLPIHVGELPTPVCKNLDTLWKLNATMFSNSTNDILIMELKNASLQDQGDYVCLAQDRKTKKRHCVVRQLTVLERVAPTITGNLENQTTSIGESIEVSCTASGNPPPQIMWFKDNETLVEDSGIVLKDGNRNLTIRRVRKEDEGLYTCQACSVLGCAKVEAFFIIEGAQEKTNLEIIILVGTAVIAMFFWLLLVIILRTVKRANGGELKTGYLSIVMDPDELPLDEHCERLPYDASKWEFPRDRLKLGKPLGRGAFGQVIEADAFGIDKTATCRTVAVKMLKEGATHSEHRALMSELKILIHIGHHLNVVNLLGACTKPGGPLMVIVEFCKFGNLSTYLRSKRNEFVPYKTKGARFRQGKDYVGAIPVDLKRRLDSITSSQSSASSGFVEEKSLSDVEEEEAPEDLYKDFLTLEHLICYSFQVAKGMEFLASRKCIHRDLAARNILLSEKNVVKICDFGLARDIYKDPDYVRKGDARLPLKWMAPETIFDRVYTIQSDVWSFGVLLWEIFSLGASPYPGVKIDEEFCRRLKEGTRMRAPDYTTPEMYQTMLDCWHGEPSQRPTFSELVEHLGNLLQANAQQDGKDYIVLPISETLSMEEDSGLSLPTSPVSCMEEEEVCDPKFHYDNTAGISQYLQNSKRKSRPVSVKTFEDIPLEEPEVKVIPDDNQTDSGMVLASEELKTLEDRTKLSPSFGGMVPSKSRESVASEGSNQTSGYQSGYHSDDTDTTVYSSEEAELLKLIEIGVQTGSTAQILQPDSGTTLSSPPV

Substance | HGF induced activation of Erk (Erk; HGF 20 ng/ml) | VEGF-A121 induced activation of Erk (Erk; VEGF-A121 40 ng/ml) | VEGF-A165 induced activation of Erk (Erk) | activation of VEGFR-2 by VEGF-A121 (VEGFR-2; VEGF-A121 40 ng/ml, 0.5 μg/ml CD44v6ECD) | activation of VEGFR-2 by VEGF-A165 (VEGFR-2; VEGF-A165 40 ng/ml) | tumor growth (MDA-MB231 tumors; 20 μg i.p. three times per week for four weeks) | average vessel number (microvessel density) (MDA-MB231 tumors; CD31 stained tumor sections, 20 μg i.p. three times per week, five animals each) [per mm^2]
CD44v6ECD: soluble CD44v6 ectodomain produced in Pichia pastoris | completely abrogated | completely blocked | completely abrogated | completely blocked | – | – | –
KEQWFGNRWHEGYR (listed as Homo sapiens) [v6 human peptide (14mer)] | – | – | abrogated | – | abrogated | – | –
QETWFQNGWQGKNP (listed as Mus musculus) [v6 murine peptide] | – | – | – | – | – | not influenced | 183

Reference: patent US8883738B2, “Use of a peptide fragment of CD44v6 in the treatment of ophthalmic diseases” (Karlsruher Institut für Technologie, priority 2009, dated 2014)
